Converted amounts (≈) assume the structure as drawn. “And” between values parts separate entries of the source, which are not always exact repeats. Equal values may be shown once.
Test: Kinetic solubility of compound by measuring concentration at pH 7.4 in saturated PBS buffer by UV LCMS/MS using calibration curves. The assay has been performed by Enamine biological services, Bienta Ltd.The protocol is publicly available: dx.doi.org/10.17504/protocols.io.j8nlk8y41l5r/v1
Assay type: physicochemical
Conditions: PBS buffer
With CSc1cc2c(cc1NC(=O)c1cc(F)cc3[nH]ncc13)CNC2 the solubility kinetic was 392 µM (≈ 134 µg/mL).
In the case of O=C(Nc1ccc2c(c1)CNC2)c1ccc2[nH]cc(C3CCNCC3)c2c1, the solubility kinetic is reported as 377 µM (≈ 136 µg/mL).
With O=C(NCC(F)F)[C@H](Nc1cc2c(cc1Br)CNC2)c1cc(Cl)cc(C2CC2)c1 the solubility kinetic was 333 µM (≈ 161 µg/mL).
Work on CNC(=O)c1cc(Br)cc([C@H](Nc2ccc3c(c2)CNC3)C(=O)NCC(F)F)c1 yielded a solubility kinetic of at least 400 µM.
COc1ccc(-c2nc3c(C(=O)Nc4ccc5c(c4)CNC5)cc(F)cc3[nH]2)nn1 showed a solubility kinetic of 16 µM (≈ 6.47 µg/mL).
O=C(NCC(F)F)[C@H](Nc1cnc2c(c1)CNC2)c1cc(Cl)cc(C2CC2)c1 showed a solubility kinetic of 362 µM (≈ 147 µg/mL).
In the case of Cn1ncc2c(C(=O)Nc3ccc4c(c3)CNC4)cc(Cl)cc21, the solubility kinetic is reported as at least 400 µM.
Nc1ccncc1-c1cc(F)cc(C(=O)Nc2ccc3c(c2)CNC3)c1 gave a solubility kinetic of 392 µM (≈ 137 µg/mL).

Same assay, conditions: buffer
In the case of O=C(NCC(F)F)[C@H](Nc1ccc2c(c1)CNC2)c1cc(Cl)cc(C2CC2)c1, the “Solubility (mean)” value is reported as 367 µM and 326 µM.

Same assay, conditions: buffer, ph 7.5
For O=C(NCC(F)F)[C@H](Nc1ccc2c(c1)CNC2)c1cc(Cl)cc(C2CC2)c1, the “Solubility (mean)” value was 139 µM (≈ 56.4 µg/mL).
